pEC50: −log10 of the molar value.
target: T1, human F508del CFTR (Homo sapiens, UniProt P13569, DEL508-508); test: CFTR-YFP High Throughput Assay; type: cell-based; conditions: EMax normalized to the positive control; FRT cells expressing human F508del CFTR and YFP; read-out: % Efficacy
T1 construct: expressed in transfected cells; host or cells: Fisher Rat Thyroid (FRT) cells
Procedure, shortened: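 Corrector mode: 24-26 h compound exposure (2 nM-40 μM, 37° C) of FRT cells carrying human F508del CFTR and YFP-H148Q/I152L, followed by washing and 60-120 min RT stimulation with 20 μM forskolin and 30 μM P3. CFTR activity is the least-squares-fitted rate of YFP quenching (Ex 500/Em 540 nm) after iodide addition.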

T1 sequence (P13569 with tags, fused parts or gaps DEL508-508): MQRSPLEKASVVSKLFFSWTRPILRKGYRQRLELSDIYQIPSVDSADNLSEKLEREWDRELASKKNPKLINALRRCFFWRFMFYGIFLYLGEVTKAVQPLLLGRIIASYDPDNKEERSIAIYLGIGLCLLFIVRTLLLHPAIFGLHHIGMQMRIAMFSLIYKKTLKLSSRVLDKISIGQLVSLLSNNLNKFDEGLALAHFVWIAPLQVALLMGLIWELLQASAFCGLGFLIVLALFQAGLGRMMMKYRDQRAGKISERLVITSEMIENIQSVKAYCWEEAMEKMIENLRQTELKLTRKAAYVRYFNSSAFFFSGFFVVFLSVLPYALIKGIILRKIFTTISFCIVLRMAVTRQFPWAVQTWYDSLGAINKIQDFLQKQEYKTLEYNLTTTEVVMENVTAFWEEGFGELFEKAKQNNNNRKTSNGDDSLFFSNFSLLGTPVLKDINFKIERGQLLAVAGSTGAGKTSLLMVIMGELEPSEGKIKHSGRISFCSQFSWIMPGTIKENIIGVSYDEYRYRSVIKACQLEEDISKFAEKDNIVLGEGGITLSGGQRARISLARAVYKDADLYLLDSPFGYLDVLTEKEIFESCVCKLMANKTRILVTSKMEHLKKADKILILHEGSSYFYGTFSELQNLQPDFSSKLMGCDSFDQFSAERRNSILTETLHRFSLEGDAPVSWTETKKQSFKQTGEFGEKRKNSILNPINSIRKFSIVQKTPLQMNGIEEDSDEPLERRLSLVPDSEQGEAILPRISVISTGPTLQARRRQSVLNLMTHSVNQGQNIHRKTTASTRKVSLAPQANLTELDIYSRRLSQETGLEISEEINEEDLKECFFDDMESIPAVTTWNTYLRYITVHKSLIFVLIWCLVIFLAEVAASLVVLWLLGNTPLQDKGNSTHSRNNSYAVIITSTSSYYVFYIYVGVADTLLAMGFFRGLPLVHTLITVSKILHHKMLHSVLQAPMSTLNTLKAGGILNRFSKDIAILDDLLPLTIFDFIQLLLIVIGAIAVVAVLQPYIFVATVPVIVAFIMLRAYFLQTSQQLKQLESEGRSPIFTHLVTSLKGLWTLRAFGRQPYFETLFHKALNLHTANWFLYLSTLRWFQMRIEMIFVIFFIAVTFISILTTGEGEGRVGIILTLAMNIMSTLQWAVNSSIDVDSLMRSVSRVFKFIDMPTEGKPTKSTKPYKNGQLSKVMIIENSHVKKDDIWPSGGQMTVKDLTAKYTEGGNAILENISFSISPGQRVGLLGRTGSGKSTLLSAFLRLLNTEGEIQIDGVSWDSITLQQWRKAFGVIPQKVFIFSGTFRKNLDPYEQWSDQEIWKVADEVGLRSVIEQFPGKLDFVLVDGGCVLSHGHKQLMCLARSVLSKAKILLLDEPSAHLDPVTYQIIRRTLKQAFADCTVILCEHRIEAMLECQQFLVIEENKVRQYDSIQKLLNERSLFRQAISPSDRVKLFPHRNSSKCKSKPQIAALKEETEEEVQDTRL

Structure (SMILES)	Emax [%]
Cc1nc2ccc(N(C)C(=O)Cn3ncc4c(c3=O)c3ccccc3n4Cc3ccc(C#N)cc3)cc2o1 [Example 149, 2-(5-(4-cyanobenzyl)-1-oxo-1,5-dihydro-2H-pyridazino[4,5-b]indol-2-yl)-N-methyl-N-(2-methylbenzo[d]oxazol-6-yl)acetamide]	30 to 80
Cc1ccc(-n2nc(C(=O)N3CCCCC3)c3c4ccccc4n(C)c3c2=O)cc1 [Example 150, 5-methyl-1-(piperidine-1-carbonyl)-3-p-tolyl-3H-pyridazino [4,5-b]indol-4(5H)-one]	30 to 80
CCN(C(=O)c1nn(-c2ccccc2)c(=O)c2c1c1ccccc1n2C)c1ccncn1 [Example 151, N-ethyl-5-methyl-4-oxo-3-phenyl-N-(pyrimidin-4-yl)-4,5-dihydro-3H-pyridazino[4,5-b]indole-1-carboxamide]	30 to 80
CCN(C(=O)c1nn(-c2ccccc2)c(=O)c2c1c1ccccc1n2C)c1ccncc1 [Example 158, N-ethyl-5-methyl-4-oxo-3-phenyl-N-(pyridin-4-yl)-4,5-dihydro-3H-pyridazino[4,5-b]indole-1-carboxamide]	30 to 80
CCN(C(=O)c1nn(-c2ccc(C)cc2)c(=O)c2c1c1ccccc1n2C)C1CC1 [Example 160, N-cyclopropyl-N-ethyl-5-methyl-4-oxo-3-(p-tolyl)-4,5-dihydro-3H-pyridazino[4,5-b]indole-1-carboxamide]	30 to 80
Cc1ccc(-n2nc(C(=O)N3CCN(Cc4ccccc4)CC3)c3c4ccccc4n(C)c3c2=O)cc1 [Example 161, 1-(4-benzylpiperazine-1-carbonyl)-5-methyl-3-(p-tolyl)-3H-pyridazino[4,5-b]indol-4(5H)-one]	30 to 80

Next, values leading:

Emax [%]	Structure (SMILES)
30 to 80	Cc1ccc(-n2nc(C(=O)N(c3ccccc3)C(C)C)c3c4ccccc4n(C)c3c2=O)cc1 [Example 152, N-isopropyl-5-methyl-4-oxo-N-phenyl-3-(p-tolyl)-4,5-dihydro-3H-pyridazino[4,5-b]indole-1-carboxamide]
30 to 80	Cc1ccc(-n2nc(C(=O)N(c3ccccc3)C3CC3)c3c4ccccc4n(C)c3c2=O)cc1 [Example 153, N-cyclopropyl-5-methyl-4-oxo-N-phenyl-3-(p-tolyl)-4,5-dihydro-3H-pyridazino[4,5-b]indole-1-carboxamide]
30 to 80	Cc1ccc(-n2nc(C(=O)N(CC#N)c3ccccc3)c3c4ccccc4n(C)c3c2=O)cc1 [Example 154, N-(cyanomethyl)-5-methyl-4-oxo-N-phenyl-3-(p-tolyl)-4,5-dihydro-3H-pyridazino[4,5-b]indole-1-carboxamide]
30 to 80	CCN(CC)C(=O)c1nn(-c2ccc(C)cc2)c(=O)c2c1c1ccccc1n2C [Example 155, N, N-diethyl-5-methyl-4-oxo-3-(p-tolyl)-4,5-dihydro-3H-pyridazino[4,5-b]indole-1-carboxamide]
30 to 80	CCN(C(=O)c1nn(-c2ccc(C)cc2)c(=O)c2c1c1ccccc1n2C)c1ccccn1 [Example 156, N-ethyl-5-methyl-4-oxo-N-(pyridin-2-yl)-3-(p-tolyl)-4,5-dihydro-3H-pyridazino[4,5-b]indole-1-carboxamide]
30 to 80	CCN(C(=O)c1nn(-c2ccc(C)cc2)c(=O)c2c1c1ccccc1n2C)c1cccnc1 [Example 157, N-ethyl-5-methyl-4-oxo-N-(pyridin-3-yl)-3-(p-tolyl)-4,5-dihydro-3H-pyridazino[4,5-b]indole-1-carboxamide]
30 to 80	Cc1ccc(-n2nc(C(=O)N3CCCc4ccccc43)c3c4ccccc4n(C)c3c2=O)cc1 [Example 159, 5-methyl-1-(1,2,3,4-tetrahydroquinoline-1-carbonyl)-3-(p-tolyl)-3H-pyridazino[4,5-b]indol-4(5H)-one]
30 to 80	CCN(C(=O)c1nn(-c2ccccc2)c(=O)c2c1c1ccccc1n2C)c1ncccn1 [Example 162, N-ethyl-5-methyl-4-oxo-3-phenyl-N-(pyrimidin-2-yl)-4,5-dihydro-3H-pyridazino[4,5-b]indole-1-carboxamide]

same assay, conditions: FRT cells expressing human F508del CFTR and YFP

pEC50	Structure (SMILES)
> 5.00	Cc1nc2ccc(N(C)C(=O)Cn3ncc4c(c3=O)c3ccccc3n4Cc3ccc(C#N)cc3)cc2o1 [Example 149, 2-(5-(4-cyanobenzyl)-1-oxo-1,5-dihydro-2H-pyridazino[4,5-b]indol-2-yl)-N-methyl-N-(2-methylbenzo[d]oxazol-6-yl)acetamide]
